Measurements published in patent US20040058948A1, “Mappicine analogs, methods of inhibiting retroviral reverse transcriptase and methods of treating retroviruses” (priority 2002, published 2004).
“And” between values parts separate entries of the source, which are not always exact repeats. Equal values may be shown once. Read-outs that look alike come from different tables or passages of the source.

Columns and labels:
[1] = target: T1, RNA-dependent DNA polymerase activity of HIV reverse transcriptase (Human immunodeficiency virus type 1 group M subtype B, UniProt P04585); assay: RNA-dependent DNA polymerase activity assay of HIV reverse transcriptase; format: biochemical, HIV-1; conditions: 10 μM inhibitor concentration, activity with analog / without analog x 100; for remaining activity at 10 µM: read-out: Residual activity (%) Polymerase
T1 construct: made in house
Summary of the method: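 HIV reverse transcriptase RNA-dependent DNA polymerase activity measured with and without mappicine analogs at 10 μM final. Values are % residual activity: activity with compound divided by activity without, ×100.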

[2] = target: T2, RNase H activity of HIV reverse transcriptase (Human immunodeficiency virus type 1 group M subtype B, UniProt P04585); assay: Fluorescence (FRET)-based RNase H activity assay of HIV reverse transcriptase; format: biochemical, HIV-1; parameters: final concentration of 2.5 nM of the p51/p66 RT heterodimer in the assay; made in house; conditions: for Residual activity (%) RNase H / remaining activity at 10 µM: 10 μM inhibitor concentration, activity with analog / without analog x 100; for remaining activity at 10 µM: read-out: Residual activity (%) RNase H; for IC50: read-out: IC50 (μM) against HIV RNase H in vitro
Summary of the method: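 p51/p66 HIV-1 RT (usually 2.5 nM) cleaving a 3′-fluorescein RNA/5′-DABCYL DNA hybrid (2.5 μM stock) in 50 mM Tris pH 8.0, 60 mM KCl, 2.5 mM MgCl2, 37 °C; fluorescence rise (ex 490/em 528 nm) read over 3–60 min. Mappicine analogs at 10 μM; % residual activity or % inhibition versus compound-free enzyme.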

[3] = system: HIV-1 replication; assay: Cell culture viral growth assay (HIV-1 replication); format: cell-based
[4] = system: HIV-1 replication; conditions: published compounds, in words; cited from earlier work
[5] = system: cells; conditions: published compound, in words; cited from earlier work
[6] = target: T2, RNase H activity of HIV reverse transcriptase; conditions: read-out: IC50 RNase H inhibition; literature value (Borkow et al. 1997); cited from earlier work
[7] = system: cells; conditions: published compounds, in words; cited from earlier work
[8] = Human immunodeficiency virus 1, read-out: EC50 (μM) against HIV-1 replication

Row | SMILES | Residual activity (%) Polymerase [1] [%] | Residual activity (%) RNase H [2] [%] | also measured
1 | COc1ccc2nc3c(c([Si](C)(C)C)c2c1)Cn1c-3cc(C(=O)CCC2CCCCC2)c(C)c1=O [5Dδκ] | 40 | 92 | 
2 | CCCCCCc1c2c(nc3ccccc13)-c1cc(C(=O)CC)c(C)c(=O)n1C2 [8Aακ] | 53 | 77 | 
3 | CCCCCCc1c2c(nc3ccccc13)-c1cc(C(O)C(C)(C)C)c(C)c(=O)n1C2 (centres unmarked) [8Aβ] | 103 | 91 | 
4 | CCCCCCc1c2c(nc3ccccc13)-c1cc(C(=O)C(C)(C)C)c(C)c(=O)n1C2 [8Aβκ] | 76 | 96 | 
5 | CCCCCCc1c2c(nc3ccccc13)-c1cc(C(O)CCC3CCCCC3)c(C)c(=O)n1C2 (centres unmarked) [8Aδ] | 72 | 89 | 
6 | CCCCCCc1c2c(nc3ccccc13)-c1cc(C(=O)CCC3CCCCC3)c(C)c(=O)n1C2 [8Aδκ] | 63 | 97 | 
7 | CCCCCCc1c2c(nc3ccccc13)-c1cc(C(=O)Cc3ccccc3)c(C)c(=O)n1C2 [8Aεκ] | 59 | 92 | 
8 | CCCCCCc1c2c(nc3ccc(F)cc13)-c1cc(C(O)CC)c(C)c(=O)n1C2 (centres unmarked) [8Bα] | 57 | 80 | 
9 | CCCCCCc1c2c(nc3ccc(F)cc13)-c1cc(C(=O)CC)c(C)c(=O)n1C2 [8Bακ] | 64 | 103 | 
10 | CCCCCCc1c2c(nc3ccc(F)cc13)-c1cc(C(=O)C(C)(C)C)c(C)c(=O)n1C2 [8Bβκ] | 44 | 81 | 
11 | CCCCCCc1c2c(nc3ccc(F)cc13)-c1cc(C(O)CCC3CCCCC3)c(C)c(=O)n1C2 (centres unmarked) [8Bδ] | 90 | 112 | 
12 | CCCCCCc1c2c(nc3ccc(F)cc13)-c1cc(C(=O)CCC3CCCCC3)c(C)c(=O)n1C2 [8Bδκ] | 80 | 95 | 
13 | CCCCCCc1c2c(nc3ccc(C)cc13)-c1cc(C(=O)CC)c(C)c(=O)n1C2 [8Cακ] | 31 | 92 | 
14 | CCCCCCc1c2c(nc3ccc(C)cc13)-c1cc(C(=O)C(C)(C)C)c(C)c(=O)n1C2 [8Cβκ] | 66 | 95 | 
15 | CCCCCCc1c2c(nc3ccc(C)cc13)-c1cc(C(O)CCC3CCCCC3)c(C)c(=O)n1C2 (centres unmarked) [8Cδ] | 73 | 72 | 
16 | CCCCCCc1c2c(nc3ccc(C)cc13)-c1cc(C(=O)CCC3CCCCC3)c(C)c(=O)n1C2 [8Cδκ] | 79 | 95 | 
17 | CCCCCCc1c2c(nc3ccc(C)cc13)-c1cc(C(=O)Cc3ccccc3)c(C)c(=O)n1C2 [8Cεκ] | 66 | 86 | 
18 | CCCCCCc1c2c(nc3ccc(OC)cc13)-c1cc(C(=O)CC)c(C)c(=O)n1C2 [8Dακ] |  |  | Residual activity (%) Polymerase ([1]; 10 µM): 90% and 51%; Residual activity (%) RNase H ([2]; 10 µM): 88% and 84%
19 | CCCCCCc1c2c(nc3ccc(OC)cc13)-c1cc(C(=O)CCC3CCCCC3)c(C)c(=O)n1C2 [8Dδκ] | 65 | 90 | 
20 | CCCCCCc1c2c(nc3ccc(OC)cc13)-c1cc(C(O)Cc3ccccc3)c(C)c(=O)n1C2 (centres unmarked) [8Dε] | 73 | 82 | 
21 | CCC(O)c1cc2n(c(=O)c1C)Cc1c-2nc2ccc(NC(=O)OC(C)(C)C)cc2c1[Si](C)(C)C (centres unmarked) [AG 2M, 2-tert-Butyloxycarbonylamino-7-(1-hydroxypropyl)-8-methyl-12-trimethylsilanyl-11H-indolizino[1,2-b]quinolin-9-one] |  |  | remaining activity at 10 µM [1]: 80%; EC50 [3, 8]: ~5 µM; remaining activity at 10 µM [2]: 47%; IC50 [2]: < 10 µM and 8 µM
22 | CCC(O)c1cc2n(c(=O)c1C)Cc1c-2nc2ccc(N)cc2c1[Si](C)(C)C (centres unmarked) [AG 3M, 2-Amino-7-(1-hydroxypropyl)-8-methyl-12-trimethylsilanyl-11H-indolizino[1,2-b]quinolin-9-one] |  |  | remaining activity at 10 µM [1]: 123%; remaining activity at 10 µM [2]: 63%
23 | CCc1c2c(nc3ccc(NC(=O)OC(C)(C)C)cc13)-c1cc(C(O)CC)c(C)c(=O)n1C2 (centres unmarked) [AG 5M, 2-tert-Butyloxycarbonylamino-12-ethyl-7-(1-hydroxypropyl)-8-methyl-11H-indolizino[1,2-b]quinolin-9-one] |  |  | remaining activity at 10 µM [1]: 87%; remaining activity at 10 µM [2]: 68%
24 | CCc1c2c(nc3ccc(N)cc13)-c1cc(C(O)CC)c(C)c(=O)n1C2 (centres unmarked) [AG 6M, 2-Amino-12-ethyl-7-(1-hydroxypropyl)-8-methyl-11H-indolizino[1,2-b]quinolin-9-one] |  |  | remaining activity at 10 µM [1]: 76%; EC50 [3, 8]: ~5 µM; remaining activity at 10 µM [2]: 57%; IC50 [2]: < 10 µM and 10 µM
25 | CCc1c2c(nc3ccc(OC(C)=O)cc13)-c1cc(C(O)CC)c(C)c(=O)n1C2 (centres unmarked) [AG 7M, 2-Acetoxy-12-ethyl-7-(1-hydroxypropyl)-8-methyl-11H-indolizino[1,2-b]quinolin-9-one] |  |  | remaining activity at 10 µM [1]: 99%; remaining activity at 10 µM [2]: 63%
26 | CCc1c2c(nc3ccc(O)cc13)-c1cc(C(O)CC)c(C)c(=O)n1C2 (centres unmarked) [AG 8M, 12-Ethyl-2-hydroxy-7-(1-hydroxypropyl)-8-methyl-11H-indolizino[1,2-b]quinolin-9-one] |  |  | remaining activity at 10 µM [1]: 69%; remaining activity at 10 µM [2]: 87%
27 | CC(C)(C)c1ccc(C(=O)NN=Cc2c(O)ccc3ccccc23)cc1 [BBNH, N-4-(t-butylbenzoyl)-2-hydroxy-1-napthaldehyde hydrazone] |  |  | EC50 ([3]; Human immunodeficiency virus 1, cell culture viral growth assay, read-out: EC50 (μM) against HIV-1 replication): 1.5 µM; antiviral activity against HIV-1 replication in cultured cells [4]: demonstrated antiviral activity against HIV-1 replication in cultured cells; toxicity to cells [5]: highly toxic to cells at concentrations only slightly above those that inhibit virus replication; IC50 [6]: ~2 µM; IC50 [2]: 1.8 µM
28 | O=C(O)C(=O)CC(=O)c1ccc(NC(=O)c2ccccc2)s1 [BTOBA, 4-[5-(benzoylamino)thien-2-yl]-2,4-dioxobutanoic acid] |  |  | antiviral activity against HIV-1 replication in cultured cells [4]: cannot inhibit HIV-1 replication in cultured cells; ability to penetrate cells [7]: Neither CPHM nor BTOBA are able to penetrate cells
29 | O=C(O)C(=NNc1ccc(Cl)cc1)C(=O)O [CPHM, 2-[(4-chlorophenyl)-hydrazono]-malonic acid] |  |  | antiviral activity against HIV-1 replication in cultured cells [4]: cannot inhibit HIV-1 replication in cultured cells; ability to penetrate cells [7]: Neither CPHM nor BTOBA are able to penetrate cells
